# Experimental data taken from ChEMBL document CHEMBL3045679, “Microwave-assisted synthesis and pharmacological studies of novel 5-deazaalloxazine derivatives” (2012).
# Active and inactive are the calls of the source. The rule behind the calls is not given here.
# Assays:
# Escherichia coli [1] = experiment: Antibacterial activity against Escherichia coli NCIM 2065 at 500 ug/disk after 24 hr by disk diffusion method; assay type: functional; conditions: NCIM 2065, 24 h, read-out: DIZ
# Pseudomonas aeruginosa [2] = experiment: Antibacterial activity against Pseudomonas aeruginosa NCIM 2200 at 500 ug/disk after 24 hr by disk diffusion method; assay type: functional
# Streptomyces albus [3] = experiment: Antibacterial activity against Streptomyces albus NCIM 2178 after 24 hr by broth dilution assay; assay type: functional; conditions: NCIM 2178, 24 h
# Bacillus subtilis [4] = experiment: Antibacterial activity against Bacillus subtilis NCIM 2063 at 1000 ug/disk after 24 hr by disk diffusion method; assay type: functional; conditions: NCIM 2063, 24 h, read-out: DIZ
# Klebsiella aerogenes [5] = experiment: Antibacterial activity against Enterobacter aerogenes NCIM 2239 at 1000 ug/disk after 24 hr by disk diffusion method; assay type: functional; conditions: NCIM 2239, 24 h, read-out: DIZ
# Klebsiella aerogenes [6] = experiment: Antibacterial activity against Enterobacter aerogenes NCIM 2239 at 500 ug/disk after 24 hr by disk diffusion method; assay type: functional
# Rhodotorula mucilaginosa [7] = experiment: Antifungal activity against Rhodotorula mucilaginosa NCIM 3174 after 72 hr by broth dilution assay; assay type: functional; conditions: NCIM 3174, 72 h
# Aspergillus niger [8] = experiment: Antifungal activity against Aspergillus niger NCIM 1196 at 500 ug/disk after 72 hr by disk diffusion method; assay type: functional
# Lipomyces lipofer [9] = experiment: Antifungal activity against Lipomyces lipofer NCIM 3252 at 1000 ug/disk after 72 hr by disk diffusion method; assay type: functional; conditions: NCIM 3252, 72 h, read-out: DIZ
# Lipomyces lipofer [10] = experiment: Antifungal activity against Lipomyces lipofer NCIM 3252 after 72 hr by broth dilution assay; assay type: functional; conditions: NCIM 3252, 72 h
# Streptomyces albus [11] = experiment: Antibacterial activity against Streptomyces albus NCIM 2178 at 500 ug/disk after 24 hr by disk diffusion method; assay type: functional, organism-based
# Bacillus subtilis [12] = experiment: Antibacterial activity against Bacillus subtilis NCIM 2063 at 500 ug/disk after 24 hr by disk diffusion method; assay type: functional
# Bacillus subtilis [13] = experiment: Antibacterial activity against Bacillus subtilis NCIM 2063 after 24 hr by broth dilution assay; assay type: functional; conditions: NCIM 2063, 24 h
# Bacillus cereus [14] = experiment: Antibacterial activity against Bacillus cereus NCIM 2155 at 500 ug/disk after 24 hr by disk diffusion method; assay type: functional; conditions: NCIM 2155, 24 h, read-out: DIZ
# Rhodotorula mucilaginosa [15] = experiment: Antifungal activity against Rhodotorula mucilaginosa NCIM 3174 at 500 ug/disk after 72 hr by disk diffusion method; assay type: functional
# Penicillium chrysogenum [16] = experiment: Antifungal activity against Penicillium chrysogenum NCIM 707 at 500 ug/disk after 72 hr by disk diffusion method; assay type: functional
# Klebsiella aerogenes [17] = experiment: Antibacterial activity against Enterobacter aerogenes NCIM 2239 after 24 hr by broth dilution assay; assay type: functional; conditions: NCIM 2239, 24 h
# Aspergillus flavus [18] = experiment: Antifungal activity against Aspergillus flavus NCIM 535 at 1000 ug/disk after 72 hr by disk diffusion method; assay type: functional; conditions: NCIM 535, 72 h, read-out: DIZ
# Streptomyces albus [19] = experiment: Antibacterial activity against Streptomyces albus NCIM 2178 at 1000 ug/disk after 24 hr by disk diffusion method; assay type: functional; conditions: NCIM 2178, 24 h, read-out: DIZ
# Rhodotorula mucilaginosa [20] = experiment: Antifungal activity against Rhodotorula mucilaginosa NCIM 3174 at 1000 ug/disk after 72 hr by disk diffusion method; assay type: functional; conditions: NCIM 3174, 72 h, read-out: DIZ
# Pseudomonas aeruginosa [21] = experiment: Antibacterial activity against Pseudomonas aeruginosa NCIM 2200 at 1000 ug/disk after 24 hr by disk diffusion method; assay type: functional; conditions: NCIM 2200, 24 h, read-out: DIZ
# Aspergillus niger [22] = experiment: Antifungal activity against Aspergillus niger NCIM 1196 at 1000 ug/disk after 72 hr by disk diffusion method; assay type: functional
# Candida albicans [23] = experiment: Antifungal activity against Candida albicans NCIM 3471 at 500 ug/disk after 72 hr by disk diffusion method; assay type: functional
# Aspergillus flavus [24] = experiment: Antifungal activity against Aspergillus flavus NCIM 535 after 72 hr by broth dilution assay; assay type: functional; conditions: NCIM 535, 72 h
# Pseudomonas aeruginosa [25] = experiment: Antibacterial activity against Pseudomonas aeruginosa NCIM 2200 after 24 hr by broth dilution assay; assay type: functional; conditions: NCIM 2200, 24 h
# Penicillium chrysogenum [26] = experiment: Antifungal activity against Penicillium chrysogenum NCIM 707 at 1000 ug/disk after 72 hr by disk diffusion method; assay type: functional; conditions: NCIM 707, 72 h, read-out: DIZ
# Bacillus cereus [27] = experiment: Antibacterial activity against Bacillus cereus NCIM 2155 at 1000 ug/disk after 24 hr by disk diffusion method; assay type: functional; conditions: NCIM 2155, 24 h, read-out: DIZ
# Penicillium chrysogenum [28] = experiment: Antifungal activity against Penicillium chrysogenum NCIM 707 after 72 hr by broth dilution assay; assay type: functional; conditions: NCIM 707, 72 h
# Bacillus cereus [29] = experiment: Antibacterial activity against Bacillus cereus NCIM 2155 after 24 hr by broth dilution assay; assay type: functional; conditions: NCIM 2155, 24 h
# Escherichia coli [30] = experiment: Antibacterial activity against Escherichia coli NCIM 2065 after 24 hr by broth dilution assay; assay type: functional; conditions: NCIM 2065, 24 h
# Escherichia coli [31] = experiment: Antibacterial activity against Escherichia coli NCIM 2065 at 1000 ug/disk after 24 hr by disk diffusion method; assay type: functional; conditions: NCIM 2065, 24 h, read-out: DIZ
# Aspergillus flavus [32] = experiment: Antifungal activity against Aspergillus flavus NCIM 535 at 500 ug/disk after 72 hr by disk diffusion method; assay type: functional; conditions: NCIM 535, 72 h, read-out: DIZ
# Candida albicans [33] = experiment: Antifungal activity against Candida albicans NCIM 3471 after 72 hr by broth dilution assay; assay type: functional; conditions: NCIM 3471, 72 h
# Lipomyces lipofer [34] = experiment: Antifungal activity against Lipomyces lipofer NCIM 3252 at 500 ug/disk after 72 hr by disk diffusion method; assay type: functional
# Candida albicans [35] = experiment: Antifungal activity against Candida albicans NCIM 3471 at 1000 ug/disk after 72 hr by disk diffusion method; assay type: functional; conditions: NCIM 3471, 72 h, read-out: DIZ
# Aspergillus niger [36] = experiment: Antifungal activity against Aspergillus niger NCIM 1196 after 72 hr by broth dilution assay; assay type: functional; conditions: NCIM 1196, 72 h
Structure (SMILES),zone of inhibition at 500 µg/disc (Escherichia coli [1]),MIC (Streptomyces albus [3]),zone of inhibition at 1000 µg/disc (Bacillus subtilis [4]),zone of inhibition at 1000 µg/disc (Klebsiella aerogenes [5]),MIC (Rhodotorula mucilaginosa [7]),diameter of the inhibition zone (DIZ) (Aspergillus niger [8]),zone of inhibition at 1000 µg/disc (Lipomyces lipofer [9]),MIC (Lipomyces lipofer [10]),diameter of the inhibition zone (DIZ) (Streptomyces albus [11]),diameter of the inhibition zone (DIZ) (Bacillus subtilis [12]),MIC (Bacillus subtilis [13]),zone of inhibition at 500 µg/disc (Bacillus cereus [14]),MIC (Klebsiella aerogenes [17]),zone of inhibition at 1000 µg/disc (Aspergillus flavus [18]),zone of inhibition at 1000 µg/disc (Streptomyces albus [19]),zone of inhibition at 1000 µg/disc (Rhodotorula mucilaginosa [20]),zone of inhibition at 1000 µg/disc (Pseudomonas aeruginosa [21]),diameter of the inhibition zone (DIZ) (Candida albicans [23]),MIC (Aspergillus flavus [24]),MIC (Pseudomonas aeruginosa [25]),further results
O=c1[nH]c(=S)[nH]c2nc3ccccc3cc12,9 mm,62.5 mg/L,10 mm,13 mm,15.6 mg/L,inactive,12 mm,125 mg/L,inactive,inactive,62.5 mg/L,8 mm,3.9 mg/L,15 mm,12 mm,12 mm,11 mm,inactive,7.8 mg/L,31.2 mg/L,"zone of inhibition at 500 µg/disc (Pseudomonas aeruginosa [2]; NCIM 2200, 24 h, read-out: DIZ): 10 mm; zone of inhibition at 500 µg/disc (Klebsiella aerogenes [6]; NCIM 2239, 24 h, read-out: DIZ): 10 mm; zone of inhibition at 500 µg/disc (Rhodotorula mucilaginosa [15]; NCIM 3174, 72 h, read-out: DIZ): 10 mm; zone of inhibition at 500 µg/disc (Penicillium chrysogenum [16]; NCIM 707, 72 h, read-out: DIZ): 10 mm; zone of inhibition at 1000 µg/disc (Aspergillus niger [22]; NCIM 1196, 72 h, read-out: DIZ): 10 mm; zone of inhibition at 1000 µg/disc (Penicillium chrysogenum [26]): 12 mm; zone of inhibition at 1000 µg/disc (Bacillus cereus [27]): 11 mm; MIC (Penicillium chrysogenum [28]): 7.8 mg/L; MIC (Bacillus cereus [29]): 31.2 mg/L; MIC (Escherichia coli [30]): 31.2 mg/L; zone of inhibition at 1000 µg/disc (Escherichia coli [31]): 10 mm; zone of inhibition at 500 µg/disc (Aspergillus flavus [32]): 9 mm; MIC (Candida albicans [33]): 125 mg/L; zone of inhibition at 500 µg/disc (Lipomyces lipofer [34]; NCIM 3252, 72 h, read-out: DIZ): 9 mm; zone of inhibition at 1000 µg/disc (Candida albicans [35]): 11 mm"
Cc1cccc2cc3c(=O)[nH]c(=O)[nH]c3nc12,14 mm,62.5 mg/L,10 mm,13 mm,15.6 mg/L,inactive,13 mm,31.2 mg/L,inactive,inactive,31.2 mg/L,11 mm,15.6 mg/L,13 mm,10 mm,13 mm,11 mm,inactive,7.8 mg/L,7.8 mg/L,diameter of the inhibition zone (DIZ) (Pseudomonas aeruginosa [2]): inactive; diameter of the inhibition zone (DIZ) (Klebsiella aerogenes [6]): inactive; MIC (Aspergillus niger [36]): 125 mg/L; diameter of the inhibition zone (DIZ) (Rhodotorula mucilaginosa [15]): inactive; diameter of the inhibition zone (DIZ) (Penicillium chrysogenum [16]): inactive; diameter of the inhibition zone (DIZ) (Aspergillus niger [22]): inactive; zone of inhibition at 1000 µg/disc (Penicillium chrysogenum [26]): 9 mm; zone of inhibition at 1000 µg/disc (Bacillus cereus [27]): 12 mm; MIC (Penicillium chrysogenum [28]): 62.5 mg/L; MIC (Bacillus cereus [29]): 15.6 mg/L; MIC (Escherichia coli [30]): 3.9 mg/L; zone of inhibition at 1000 µg/disc (Escherichia coli [31]): 15 mm; zone of inhibition at 500 µg/disc (Aspergillus flavus [32]): 9 mm; MIC (Candida albicans [33]): 31.2 mg/L; diameter of the inhibition zone (DIZ) (Lipomyces lipofer [34]): inactive; zone of inhibition at 1000 µg/disc (Candida albicans [35]): 11 mm
